Publication PMC7367283, “A PIP2 substitute mediates voltage sensor-pore coupling in KCNQ activation” (Communications Biology, 2020)

Biological target: pseudo wild-type KCNQ1 (with mutations C214A/G219C/C331A) (Homo sapiens, UniProt P51787, C214A/C331A/G219C)
Assay: Voltage-clamp fluorometry (VCF) of pseudo WT KCNQ1 in Xenopus oocytes
Type: cell-based
Details: for G/Gmax Mean: Fig. 3g; for F/Fmax Mean: Fig. 3i
Text: We employed voltage-clamp fluorometry (VCF) to measure the effects of CP1 on voltage-sensor activation. The emission (F) of Alexa 488 C5 maleimide attached to the S3–S4 linker, at residue C219, of the pseudo wild-type KCNQ1 (with mutations C214A/G219C/C331A) reported VSD movements in response to voltage changes, while the ionic current reported pore opening[45] (Fig. 3f, h). Similar to the WT KCNQ1, the G–V relation of the pseudo WT KCNQ1 shifted to negative voltages by −53.3 ± 3.1 mV in the presence of 10 µM CP1 (Fig. 3g). […] However, the F–V relationship shifted only by −17.3 ± 3.6 mV. […] (Supplementary Fig. 3). […] It is also apparent that at extreme negative voltages ≤ −130 mV, where the voltage sensor seemed not activated (F ~ 0, Fig. 3i), a fraction of the channels was constitutively open (G > 0, Fig. 3b, g).
Oocytes were labeled on ice for 45 min with 10 μM Alexa 488 C5 maleimide (Molecular Probes, Eugene, OR) in high K^+ solution (in mM: 98 KCl, 1.8 CaCl2, and 5 HEPES, pH 7.6). Then the cells were washed with ND96 solution and kept on ice until recording. A CA-1B amplifier was used to record whole-oocyte currents in ND96 solution. Fluorescent signals were recorded simultaneously using a Pin20A photodiode (OSI Optoelectronics, CA), filtered using a FITC filter cube (Leica, Germany, for Alexa 488), and then amplified using a patch-clamp amplifier (EPC10, HEKA, Germany).

O=S(=O)([O-])Oc1c(-c2sc3c(ccc4cccc(Cl)c43)c2OS(=O)(=O)[O-])[nH]c2ccc(Br)cc12.[Na+].[Na+] [CP1, DISODIUM 5-BROMO-2-[9-CHLORO-3-(SULFONATOOXY) NAPHTHO [1,2-B] THIEN-2-YL]-1H-INDOL-3-YL SULFATE]
shift of F–V relationship (VSD activation) (10 µM CP1): −17.3 ± 3.6 mV | shift of G–V relation (10 µM CP1): −53.3 ± 3.1 mV | G/Gmax Mean (10 µM CP1, 0 mV): 0.7707 | G/Gmax Mean (10 µM CP1, 10 mV): 0.7200 | G/Gmax Mean (10 µM CP1, 20 mV): 0.6664 | G/Gmax Mean (10 µM CP1, 40 mV): 0.5879 | G/Gmax Mean (10 µM CP1, -10 mV): 0.8231 | G/Gmax Mean (10 µM CP1, -20 mV): 0.8668 | G/Gmax Mean (10 µM CP1, -30 mV): 0.9194 | G/Gmax Mean (10 µM CP1, -40 mV): 0.9570 | G/Gmax Mean (10 µM CP1, -50 mV): 0.9837 | G/Gmax Mean (10 µM CP1, -60 mV): 1.0000 | G/Gmax Mean (10 µM CP1, -70 mV): 0.9888 | G/Gmax Mean (10 µM CP1, -80 mV): 0.9295 | G/Gmax Mean (10 µM CP1, -90 mV): 0.8170 | G/Gmax Mean (10 µM CP1, -100 mV): 0.6596 | G/Gmax Mean (10 µM CP1, -110 mV): 0.4846 | G/Gmax Mean (10 µM CP1, -120 mV): 0.3240 | G/Gmax Mean (10 µM CP1, -130 mV): 0.2412 | G/Gmax Mean (10 µM CP1, -140 mV): 0.1631 | F/Fmax Mean (10 µM CP1, 0 mV): 0.9059 | F/Fmax Mean (10 µM CP1, 10 mV): 0.9298 | F/Fmax Mean (10 µM CP1, 20 mV): 0.9639 | F/Fmax Mean (10 µM CP1, 30 mV): 0.9526 | F/Fmax Mean (10 µM CP1, 40 mV): 1.0000 | F/Fmax Mean (10 µM CP1, -10 mV): 0.8465 | F/Fmax Mean (10 µM CP1, -20 mV): 0.8444 | F/Fmax Mean (10 µM CP1, -30 mV): 0.7943 | F/Fmax Mean (10 µM CP1, -40 mV): 0.7337 | F/Fmax Mean (10 µM CP1, -50 mV): 0.6357 | F/Fmax Mean (10 µM CP1, -60 mV): 0.5712 | F/Fmax Mean (10 µM CP1, -70 mV): 0.4588 | F/Fmax Mean (10 µM CP1, -80 mV): 0.4066 | F/Fmax Mean (10 µM CP1, -90 mV): 0.2751 | F/Fmax Mean (10 µM CP1, -100 mV): 0.1745 | F/Fmax Mean (10 µM CP1, -110 mV): 0.1186 | F/Fmax Mean (10 µM CP1, -120 mV): 0.0457 | F/Fmax Mean (10 µM CP1, -130 mV): 0.0520 | F/Fmax Mean (10 µM CP1, -140 mV): 0.0265
